The test system of this assay is ST2 cells, murine bone marrow-derived stromal cells. Kind of assay: Osteoblast differentiation test (alkaline phosphatase activity). The assay is classed as cell-based. As to conditions: Mus musculus, ST-2, 96 h, at 0.03 μg/mL, four days of culturing, control group (0.1% DMSO) set at 100%, read-out: increase (%) in alkaline phosphatase activity. The protocol: ST2 cells, murine bone marrow-derived stromal cells, (obtained from RIKEN) were used.
In this test, α-MEM media (obtained from GIBCO BRL Cat. No. 10370-021) containing 10% (v/v) of inactivated calf serum (obtained from Hyclone Laboratories, Inc.) and 1% (v/v) of Penicillin-Streptomycin Liquid (obtained from GIBCO BRL Cat. No. 15140-122) (hereinbelow, abbreviated as 10%-FBS-αMEM) were used. In this test, all culturing was performed in a CO2 incubator (37° C., 95% humidity, 5% CO2).
The aforementioned cells were detached with 2 mL of a 0.25% trypsin solution (obtained from GIBCO BRL Cat. No. 15050-065) and dispersed in 10 mL of 10%-FBS-αMEM. Subsequently, the cells were collected by centrifugation (25° C., 800 rpm, five minutes). Then, a cell suspension containing 40000 of the cells/mL of 10%-FBS-αMEM was prepared. The cell suspension was then dispensed into 96-well plates (the product of Falcon), 100 μL per well, at a density of 4000 cells/well, followed by culturing for 24 hours. To the wells except for the below-described well containing a control group, the compound was dispensed at final concentrations of 0.01, 0.03, 0.1, and 0.3 μg/ml. To the well of a control group, DMSO was dispensed at a final concentration of 0.1% (v/v). After four days of culturing, the activity of alkaline phosphatase (ALP) was measured in each group.
The measurement of ALP activity was performed as follows. That is, the medium in each well of the culture plates was completely removed. Each well was then washed by dispensing 100 μL of Dulbecco's phosphate buffer (obtained from GIBCO BRL Cat. No. 14190-144) and then removing it. A cell lysate solution containing 10 mM MgCl2 and 2% (v/v) TritonX-100 (Sigma) was prepared and dispensed at 50 μL/well, followed by stirring at room temperature for five minutes. An ALP substrate solution containing 50 mM diethanolamine (Wako pure chemical industries, Ltd., Cat. No. 099-03112) and 20 mM p-nitrophenyl phosphate (Wako pure chemical industries, Ltd., Cat. No. 147-02343) was prepared and dispensed at 50 μL/well, and the plates were left to stand at room temperature for 10 minutes. Subsequently, absorbance was measured by a microplate reader (Bio-Rad Laboratories, Inc.). Setting the measurement value of the control group of each plate at 100%, the increase (%) in alkaline phosphatase activity in the test compound-addition group was calculated, which was assessed as the degree of osteoblast differentiation.
For the molecule `CN(C)S(=O)(=O)CCOC1CCN(c2cncc3ccc(C(N)=O)cc23)CC1` [Example 106], the activity at 0.03 µg/mL was no less than 200%.
As for `NC(=O)c1ccc2cncc(N3CCN(c4ccccc4)CC3)c2n1` [Example 28], the activity at 0.03 µg/mL was no less than 200%.
Regarding `NC(=O)c1ccc2cncc(N3CCN(c4ccc([N+](=O)[O-])cc4)CC3)c2c1` [Example 57], the activity at 0.03 µg/mL is no less than 200%.
With `NC(=O)c1ccc2cncc(N3CCC(OCC(=O)N4CCOCC4)CC3)c2n1` [Example 100], the activity at 0.03 µg/mL is no less than 200%.
`COCC1CCN(c2cncc3ccc(C(N)=O)nc23)CC1` [Example 112]: the activity at 0.03 µg/mL is no less than 200%.
As to `NC(=O)c1ccc2cncc(N3CCC(OCCO)CC3)c2c1` [Example 20, 4-[4-(2-Hydroxyethoxy)piperidin-1-yl]isoquinoline-6-carboxamide], the activity at 0.03 µg/mL was no less than 200%.
Turning to `COCC1CCN(c2cncc3ccc(C(N)=O)cc23)C1` (stereo not shown) [Example 73], the activity at 0.03 µg/mL was no less than 200%.
With `NC(=O)c1ccc2cncc(N3CCC(OCCOC4CCOC4)CC3)c2n1` (stereo not shown) [Example 117], the activity at 0.03 µg/mL was no less than 200%.
Turning to `NC(=O)c1ccc2cncc(N3CCC(O)(c4ccccc4)CC3)c2c1` [Example 23, 4-(4-Hydroxy-4-phenylpiperidin-1-yl)isoquinoline-6-carboxamide], the activity at 0.03 µg/mL is no less than 200%.
As to `CC(=O)C1(c2ccccc2)CCN(c2cncc3ccc(C(N)=O)cc23)CC1` [Example 46], the activity at 0.03 µg/mL is no less than 200%.
For the molecule `NC(=O)c1ccc2cncc(N3CCC(C(=O)c4ccc(F)cc4)CC3)c2c1` [Example 70], the activity at 0.03 µg/mL is no less than 200%.
For the molecule `NC(=O)c1ccc2cncc(N3CCC(c4ccccc4)CC3)c2c1` [Example 42], the activity at 0.03 µg/mL is no less than 200%.
Consider `NC(=O)c1ccc2cncc(N3CCC(C(F)(F)F)CC3)c2c1` [Example 44], for which the activity at 0.03 µg/mL is no less than 200%.
Next, `CCOC1CCCN(c2cncc3ccc(C(N)=O)cc23)C1` (stereo not shown) [Example 38]: no less than 200%.
For the molecule `COCCC1CCCN(c2cncc3ccc(C(N)=O)cc23)C1` (stereo not shown) [Example 41], the activity at 0.03 µg/mL was no less than 200%.
Next, `CC(C)(O)C1CCN(c2cncc3ccc(C(N)=O)cc23)CC1` [Example 69]: no less than 200%.
The figure for `NC(=O)c1ccc2cncc(N3CCC(OCCOCC4CCOC4)CC3)c2n1` (stereo not shown) [Example 5, 8-{4-[2-(Tetrahydrofuran-3-ylmethoxy)ethoxy]piperidin-1-yl}-1,6-naphthyridine-2-carboxamide] is no less than 200%; for `CCN(C)C(=O)N1CCN(c2cncc3ccc(C(N)=O)nc23)CC1` [Example 115] it is no less than 200%; for `NC(=O)c1ccc2cncc(N3CCC(COCCOC4CCOCC4)CC3)c2n1` [Example 110] it is no less than 200%.
In the case of `NC(=O)c1ccc2cncc(N3CCc4ccccc4C3)c2c1` [Example 59], the activity at 0.03 µg/mL was no less than 200%.
As to `NC(=O)c1ccc2cncc(N3CCC(OCC(=O)N4CCCC4)CC3)c2n1` [Example 113], the activity at 0.03 µg/mL is no less than 200%.
Next, `CC(=O)N1CCN(c2cncc3ccc(C(N)=O)cc23)CC1` [Example 79]: no less than 200%.
In the case of `CCN(C)C(=O)COC1CCN(c2cncc3ccc(C(N)=O)nc23)CC1` [Example 116], the activity at 0.03 µg/mL is no less than 200%.
Regarding `COCC1CN(c2cncc3ccc(C(N)=O)nc23)CCC1OC` (stereo not shown) [Example 108], the activity at 0.03 µg/mL was no less than 200%.
Take `NC(=O)c1ccc2cncc(N3CCCC(COC(F)F)C3)c2n1` (stereo not shown) [Example 104]: the activity at 0.03 µg/mL was no less than 200%.
The figure for `CC1CCN(c2cncc3ccc(C(N)=O)cc23)CC1` [Example 47] is no less than 200%; for `CN(C)C(=O)COC1CCN(c2cncc3ccc(C(N)=O)cc23)CC1` [Example 94] it is no less than 200%; for `CN(C)C(=O)CCC1CCN(c2cncc3ccc(C(N)=O)cc23)CC1` [Example 82] it is no less than 200%.
Consider `NC(=O)c1ccc2cncc(N3CCC(OCCOC4CC4)CC3)c2c1` [Example 87], for which the activity at 0.03 µg/mL is no less than 200%.
Consider `Cc1ccc(N2CCN(c3cncc4ccc(C(N)=O)cc34)CC2)cc1` [Example 61], for which the activity at 0.03 µg/mL is no less than 200%.
The figure for `NC(=O)c1ccc2cncc(N3CCC(OC4CCCCO4)CC3)c2c1` (stereo not shown) [Example 75] is no less than 200%; for `Cc1ccn(-c2cncc3ccc(C(N)=O)cc23)c1` [Example 66] it is no less than 200%.
Turning to `NC(=O)c1ccc2cncc(N3CC[C@@H]4CCCC[C@H]4C3)c2c1` [Example 67], the activity at 0.03 µg/mL is no less than 200%.
Consider `CC(C)(C)OC(=O)NCCOCC1CCCN(c2cncc3ccc(C(N)=O)cc23)C1` (stereo not shown) [Example 21, Tert-butyl (2-{[1-(6-carbamoylisoquinolin-4-yl)piperidin-3-yl]methoxy}ethyl)carbamate], for which the activity at 0.03 µg/mL was no less than 200%.
For `NC(=O)c1ccc2cncc(N3CCCN(c4ccccc4)CC3)c2c1` [Example 63], the activity at 0.03 µg/mL is no less than 200%.
`CC(C)OCCOC1CCN(c2cncc3ccc(C(N)=O)nc23)CC1` [Example 111]: the activity at 0.03 µg/mL was no less than 200%.
Turning to `NC(=O)c1ccc2cncc(N3CCN(C(=O)c4ccccc4)CC3)c2c1` [Example 78], the activity at 0.03 µg/mL was no less than 200%.
As to `CN(CCOC1CCN(c2cncc3ccc(C(N)=O)nc23)CC1)S(C)(=O)=O` [Example 9, 8-(4-{2-[Methyl(methylsulfonyl)amino]ethoxy}piperidin-1-yl)-1,6-naphthyridine-2-carboxamide], the activity at 0.03 µg/mL was no less than 200%.
Turning to `COCC1CCN(c2cncc3ccc(C(N)=O)cc23)CC1` [Example 37], the activity at 0.03 µg/mL was no less than 200%.
The figure for `CC1CCN(c2cncc3ccc(C(N)=O)cc23)C1` (stereo not shown) [Example 72] is no less than 200%; for `NC(=O)c1ccc2cncc(N3CCN(c4nccs4)CC3)c2c1` [Example 18, 4-[4-(1,3-Thiazol-2-yl)piperazin-1-yl]isoquinoline-6-carboxamide] it is no less than 200%; for `NC(=O)c1ccc2cncc(-n3cccc3)c2c1` [Example 34] it is no less than 200%.
Consider `NC(=O)c1ccc2cncc(N3CCC(C4CCOCC4)CC3)c2c1` [Example 65], for which the activity at 0.03 µg/mL is no less than 200%.
Take `COCC1CCCN(c2cncc3ccc(C(N)=O)nc23)C1` (stereo not shown) [Example 11, 8-[3-(Methoxymethyl)piperidin-1-yl]-1,6-naphthyridine-2-carboxamide]: the activity at 0.03 µg/mL was no less than 200%.
Consider `NC(=O)c1ccc2cncc(N3CCC(OCCS(=O)(=O)N4CCOCC4)CC3)c2n1` [Example 92], for which the activity at 0.03 µg/mL was no less than 200%.
For `NC(=O)c1ccc2cncc(N3CCCC(CO)C3)c2c1` (stereo not shown) [Example 56], the activity at 0.03 µg/mL is no less than 200%.
As to `NC(=O)c1ccc2cncc(N3CCC(C4CCCCC4)CC3)c2c1` [Example 53], the activity at 0.03 µg/mL is no less than 200%.
The figure for `COCC1CN(c2cncc3ccc(C(N)=O)cc23)CCC1OC` (stereo not shown) [Example 109] is no less than 200%.
On to `NC(=O)c1ccc2cncc(N3CCC(CCOC4CCOCC4)CC3)c2c1` [Example 71], for which the activity at 0.03 µg/mL was no less than 200%.
Regarding `NC(=O)c1ccc2cncc(N3CCC(OCC(=O)N4CCOCC4)CC3)c2c1` [Example 93], the activity at 0.03 µg/mL was no less than 200%.
The figure for `NC(=O)c1ccc2cncc(N3CCC(CO)CC3)c2c1` [Example 55] is no less than 200%.
The figure for `NC(=O)c1ccc2cncc(N3CCC(COC4CCOCC4)CC3)c2c1` [Example 77] is no less than 200%.

The record behind these values is patent US8685981B2, “Cyclic compound having hetero atom” (Daiichi Sankyo Company, Limited, priority 2009, dated 2014).
